Where only a bound is given, the exact number is not on record here.

This note sets out measurements from a melting point compilation (Tetko et al.; mined from patent text by program, amines drawn as free bases though some values may be those of a salt).

By melting point is commonly meant the temperature of the solid-liquid transition. With `CCCN1c2ncccc2C(=O)N(C)c2ccc(-c3cn[nH]c3)nc21`, the melting point lay in the range of 206 to 207 °C.

The molecule `CCOC(=O)CCCC(=O)c1ccc(OCCCCCBr)c(CCC(=O)OCC)c1` registered a melting point of 48 to 49 °C.

In the case of `CCCCCCCCCCCCCCCCCCOc1ccc(N(CC(=O)O)C(=O)OC(C)(C)C)cc1`, the melting point fell in the range of 89 to 92.5 °C.

For the molecule `O=C1CCc2c(Cc3ccc(Cl)cc3)cccc21`, the melting point was 87 to 88 °C.

Turning to `CCOC(=O)CCCNC1N=C(c2ccccc2Cl)c2c(cn(C)c2C)N(C)C1=O` (configuration not stated), the melting point fell in the range of 105 to 107 °C.

`O=C(O)c1cccc2c1Cc1c-2[nH]c2ccc(I)cc12`: the melting point worked out at 251 °C.

In turn, `CCCOC(=O)c1c(Cn2ccnc2)nc2cc(OC)c(OC)cc2c1-c1ccc(OC)c(OC)c1` registered a melting point of 166 to 168 °C.

In turn, `CC(C)c1nc(CN2C(=O)C3(COc4cc5c(cc43)OCCO5)c3ccccc32)cs1` (configuration not stated) came in with a melting point of 60 to 63 °C.

In the case of `Nc1cnc(Oc2cnc3ccccc3c2)c(Cl)c1`, the melting point was in the range of 156 to 159 °C.

In turn, `COc1ccc(N(C(=O)F)C(=O)Cl)cc1Cl` came in with a melting point of 124 to 127 °C.

`CCCCNc1c(C(=O)OCC)cnc2cn[nH]c12` gave a melting point of 86 to 95 °C.

Turning to `N=C(NO)c1cnn2c(C(F)(F)F)cc(-c3ccc(C(F)(F)F)cc3)nc12`, the melting point is 252 °C.

Molecule `CCCCC1(CCn2ccnc2)SCCS1` returned a melting point of 105 to 108 °C.

On to `Clc1ccc(C2(CBr)OCC(COc3ccc4ccccc4c3)O2)c(Cl)c1` (configuration not stated), for which the melting point worked out at 118 °C.

With `CCN1CCN(CCN2CC[C@H](NC(=O)c3cc(Cl)c(N)cc3OC)[C@H](OC)C2)C1=O` (relative stereo), the melting point turned out to be 153 °C.

`COc1cccc(OC2COc3ccc(OCc4cc(OC)ccn4)cc3C2O)c1` (configuration not stated) registered a melting point of 165 to 166 °C.

Turning to `OCCNC(c1ccccc1)c1ccccc1`, the melting point was 69 to 70 °C.

For the molecule `O=C(O)CC1CCN(c2ccc3c(NC(=O)CC4CCCCC4)c(Cl)ccc3n2)CC1`, the melting point lay within 242 to 244 °C.

The molecule `Cc1ccc(S(=O)(=O)NCCc2cccc(OCC(=O)Nc3nnn[nH]3)c2)cc1` returned a melting point of 199 to 201 °C.

On to `COc1ccnc(N2CCC3(CCCN(Cc4c[nH]c5ccccc45)C3=O)CC2)n1`, for which the melting point is 190 to 191 °C.

In the case of `O=C(O)c1cccc(-c2nc(-c3ccc(F)cc3F)cs2)c1`, the melting point lay within 255 to 256 °C.

In turn, `CCOc1ncnc(OC)c1NC(N)=S` returned a melting point of 186 to 187 °C.

As to `CC(C)(C)c1cc(CCc2cc(F)cc(F)c2NC(=O)NC(C)(C)c2ccc(Cl)c(Cl)c2)cc(C(C)(C)C)c1O`, the melting point is 224 to 226 °C.

`CCOC(=O)C1=Cc2cccc(NS(=O)(=O)N(C)C)c2OCC1`: the melting point lay in the range of 93 to 96 °C.

`CC1=C(C#Cc2ccccc2/C=C/C(C)=C/C(=O)O)C(C)(C)CCC1` yielded a melting point of 194 to 196 °C.

Consider `Cc1nc(C(=O)N(C)C)c2n1-c1ccc(Cl)cc1C(c1ccccc1Cl)=NC2`, for which the melting point was in the range of 225 to 230 °C.

`CCOC(=O)CCCSc1ncnc2c(O)n(C)nc12` returned a melting point of 160 to 161 °C.

In turn, `O=C1NC(=S)C(c2cccc(Cl)c2)C1c1ccccc1` (configuration not stated) had a melting point of 104 to 106 °C.

Molecule `Cc1c(NC(=O)c2ccc(C(C)(C)C)cc2)cccc1-c1cc(Br)c(=O)n(C)c1` had a melting point of 149 to 151 °C.

For the molecule `COc1ccnc(CCc2nc3cc(-c4ccc(S(=O)(=O)N5CCN(C)CC5)cc4)cnc3[nH]2)c1`, the melting point lay in the range of 193 to 195 °C.

Molecule `Cn1c(-c2ccc(-c3ccccn3)cc2)c(C(=O)N2CCC(OCC(=O)O)CC2)c(=O)n1-c1ccc(C(=N)N)cc1` had a melting point of 238 to 249 °C.

Regarding `CCC1C(CC)N1S(=O)(=O)c1ccc(C)cc1` (configuration not stated), the melting point was in the range of 69 to 70 °C.

As for `O=C(O)CCc1conc1-c1ccc(Cl)c(F)c1`, the melting point lay within 148 to 149 °C.

`CC(=O)Nc1ccc(-c2cnc3c(c2)N(Cc2cc(Cl)ccc2C(F)(F)F)CCN3)cc1` had a melting point of 244 °C.

For `CCOC(=O)c1cc2c(Cl)c(OC)c(OC)cc2s1`, the melting point fell in the range of 124 to 126 °C.

The molecule `CC(C)(C)C(NC(=O)c1ccc(Cl)cc1)NC(=NC#N)Nc1ccccc1F` (configuration not stated) showed a melting point of 208 to 209 °C.

`Cc1cc2c(cc1C13CC1CCC3=Cc1ccc(C(=O)O)cc1)C(C)(C)CCC2(C)C` (configuration not stated) displayed a melting point of 274 to 275 °C.

`CC(C)C1(C)N=C(c2ncc(O)cc2C(=O)O)NC1=O` (configuration not stated) returned a melting point of 255 to 257 °C.

The molecule `C=C(C)COc1cc(C(=O)OC)ccc1OC` came in with a melting point of 62 to 63 °C.

As to `Cc1c(C2CCN(C)CC2)[nH]c(=O)c2ccccc12`, the melting point lay within 202 to 204 °C.

`CCn1c(=O)c2c(nc(/C=C/c3cccc(OC(C)=O)c3)n2C)n(CC)c1=O` had a melting point of 206 to 207 °C.

On to `CC(=O)NCS[C@@H]1CC(=O)N(Cc2ccc(Oc3ccc(F)cc3)nc2)C1`, for which the melting point lay in the range of 94 to 95 °C.

The molecule `Cc1cc(-c2cc(C(F)(F)F)n3ncc(C(=O)O)c3n2)ccc1C(F)(F)F` yielded a melting point of 250 °C.

`CC(=O)NNc1c(C)cnc2c(NC(=O)c3ccccc3C(F)(F)F)cccc12` displayed a melting point of 209 to 211 °C.

Consider `CNC(=O)C(=NOC)c1ccccc1COc1ccc2c(c1)OCC2=O`, for which the melting point lay in the range of 149 to 151 °C.

`CC1=CC(O)C(OC(=O)c2ccccc2)C(C)(C)CC1OC(=O)c1ccccc1` (configuration not stated) yielded a melting point of 142 to 144 °C.

Consider `CO[C@]1(c2cc(F)cc(Oc3ccc(/C(C)=N/O)cc3)c2)CCO[C@@H]1C` (racemic), for which the melting point lay in the range of 126 to 127 °C.

Turning to `C=CC1(N)CN=C(c2ccc(Cl)c(N(C)C)c2F)N=C1C(=O)OC` (configuration not stated), the melting point was 136 to 137 °C.

For `c1csc(-c2nc(CCCOc3ccc(CCCn4ccnc4)cc3)co2)c1`, the melting point was 99 to 100 °C.

In turn, `CC(C)[Si](C)(C)CCCSCCNC(=O)n1cc(F)c(=O)[nH]c1=O` showed a melting point of 113 to 114 °C.

The molecule `O=C1C(Cl)=Cc2c(Cl)cc3c4c(c(Cl)cc1c24)C=C(Cl)C3=O` yielded a melting point of 315 to 320 °C.

With `COc1ccc(Sc2ccc3c(c2)CCC2N(C)C(=O)CCC32C)cc1` (single isomer, unassigned; (+)), the melting point lay within 150 to 151 °C.

`CN(C)c1ccc(NC(=O)N(CCC2=CCCCC2)C[C@H]2CC[C@H](CN(CCC3=CCCCC3)C(=O)Nc3ccc(N(C)C)cc3)CC2)cc1` had a melting point of 152 to 155 °C.

Turning to `Cc1sc(-c2ccccc2)nc1COc1ccc(C#N)cn1`, the melting point was in the range of 124 to 125 °C.

In turn, `COc1nn2ccccc2c1C(C)=O` had a melting point of 158 °C.

Take `O=Cc1ccc(N2C[C@H](CN3C(=O)c4ccccc4C3=O)OC2=O)cc1F`: the melting point lay within 167 to 169 °C.

As for `Fc1ccc2c(c1)NCc1c(-c3noc(C4CC4)n3)ncn1-2`, the melting point fell in the range of 263 to 265 °C.

Take `C=C(C)C(=O)OCc1c(Br)c(Br)c(Br)c(Br)c1COC(=O)C(=C)C`: the melting point fell in the range of 64 to 66 °C.

`C=C(CBr)S(=O)(=O)C(C)(C)C` gave a melting point of 40.5 to 42 °C.

The molecule `Cn1c2ccccc2c(=O)c2ccc(Cl)n21` gave a melting point of 88.5 to 90.5 °C.

`CC(C)(O)Cn1cnc2c(N)nc3cc(Br)ccc3c21` returned a melting point greater than 250 °C.

`Cc1c(Br)c(O)c(Br)c(C)c1-c1c(C)c(Br)c(O)c(Br)c1C` showed a melting point of 242 to 245 °C.

As for `Cc1ccccc1Sc1c(O)c2c(Cl)cc(Cl)cc2[nH]c1=O`, the melting point was greater than 300 °C.

Consider `Cc1cccc(C2NS(=O)(=O)c3ccccc32)c1` (single isomer, unassigned; (+)), for which the melting point lay in the range of 158 to 159 °C.

`COc1cc(Oc2cccc(C(F)(F)F)c2)nc(C(=O)NN=C2CCCC2)c1` came in with a melting point of 146 to 148 °C.

`COc1ccccc1CC(=O)N1CCCc2ncc3ccccc3c21` displayed a melting point of 108 to 111 °C.

The molecule `COc1cc(Nc2ccc(CCCc3ccc(Cl)c(Cl)c3)cc2)c(C(=O)O)cc1[N+](=O)[O-]` had a melting point of 200 to 201 °C.

`O=C(Nc1ccc(OC(F)(F)F)cc1)NC1CCN(C(=O)c2cc(O)c(O)c(O)c2)CC1` displayed a melting point of 168 to 175 °C.

As to `COCc1cc(-c2nnc3c4ccccc4c(OCc4ncnn4C)nn23)no1`, the melting point lay within 206 to 208 °C.

`CCc1cc(C#N)cc2c(NCc3ccc(OC)c(Cl)c3)c(C(=O)Oc3c(F)c(F)c(F)c(F)c3F)cnc12` displayed a melting point of 169 to 170 °C.

`CCOC(=O)Cn1c(=O)c(=O)[nH]c2cc(C(F)(F)F)c(N)cc21` returned a melting point greater than 250 °C.

Consider `CC(ON1C(C)(C)CC2(CC1(C)C)OCC(C)(C)CO2)c1ccc(C(=O)c2ccccc2)cc1` (configuration not stated), for which the melting point lay within 104 to 117 °C.

Take `O=C(O)COc1ccc2c(-c3ccc(F)cc3)noc2c1Cl`: the melting point lay in the range of 233 to 237 °C.

For the molecule `CCCOc1ccccc1-c1ccc(C(=O)O)c(=O)[nH]1`, the melting point fell in the range of 194 to 196 °C.

Take `S=C1Nc2ccccc2N2CCc3cccc1c32`: the melting point fell in the range of 185 to 186 °C.

For the molecule `COc1cc(C)cc(OC)c1C1=NC(NC(=O)Nc2cccc(C)c2)C(=O)N(C)c2ccccc21` (configuration not stated), the melting point stood at 260 °C.

Molecule `O=C1NC(=O)C(Cc2ccc(SCCCc3ccccc3)cc2)S1` (configuration not stated) yielded a melting point of 88 to 89 °C.

`COc1cccc(-c2ccccc2)c1C(O)=S` yielded a melting point of 97 to 98 °C.

In turn, `Nc1sc2c(c1C(=O)c1ccsc1)CCC(Cc1ccccc1)C2` (configuration not stated) came in with a melting point of 57 to 58 °C.

Regarding `COc1ccc2cc(C3=CCC4(CCNCC4)CC3)ccc2c1`, the melting point was in the range of 147 to 150 °C.

`CCc1cnc2c(NC(=O)c3c(Cl)cccc3Cl)cccc2c1/C=C/C(N)=O` came in with a melting point greater than 250 °C.

In turn, `CN1C(=O)CCC2(C)c3ccc(SCc4cc5ccccc5cn4)cc3CCC12` (single isomer, unassigned; (+)) returned a melting point of 129 to 130 °C.

In turn, `Brc1c[nH]c2ccc(OCc3ccccc3)cc12` showed a melting point of 89 to 92 °C.

For the molecule `Nc1ccc2sc3ccccc3c(=O)c2c1`, the melting point was 227 to 229 °C.

The molecule `O=c1cnc(-c2ccc([N+](=O)[O-])cc2)c[nH]1` displayed a melting point of 336 to 338 °C.

The molecule `COc1ccc(N2CCN(c3cc(C)c4c(c3C)CC(C)(C)O4)CC2)cc1` registered a melting point of 174 to 175 °C.

The molecule `CN(C)C1=Nc2cc(Br)ccc2N2CCc3cccc1c32` returned a melting point of 124 to 127 °C.
